# What was measured:
# [1] = tested on: T47D cells; assay: Cell cycle analysis by flow cytometry (PI), T47D; format: cell-based, human; conditions: 5 μM, 6 days (4-HPR 4 days)
# Protocol: MCF-7 and T47D cells were plated in T-25 flasks and allowed to adhere for about 18 h. The cells were then synchronised by growing them in low-serum OPTI-MEM I medium for 2 days. […] After 6-day treatment, the cells were trypsinised, washed twice with PBS, centrifuged at 2500 r.p.m. to obtain a cell pellet. The cells (about 1–2 × 10^6) were fixed with 3 ml of 70% ethanol (by adding drop-wise and taking care that the cells are not clumped together). Cells were kept at −20°C until further analysis (at least overnight). Next, cells (∼1–2 × 10^6) were stained with 1 ml of propidium iodide (PI) (50 μg ml^−1)/RNase (100 μg ml^−1) solution and after about half an hour the fluorescence of stained nuclei (15 000 events) was analysed by flow cytometry (Becton Dickinson FACScan Instrument and quantification by Modfit LT version 3.1 software) with excitation wavelength of 488 nm. The percentage of G1, S, G2/M and sub-G1 (apoptotic cells) in the population of treated and untreated cells were determined.
# [2] = tested on: cyclin D1; assay: Western blotting for cyclin D1 in MCF-7 cells; format: cell-based, human; conditions: 6 days (4HPR 4 days)
# Protocol: At the end of the treatment, cells were scrapped and collected by washing with ice-cold PBS in a centrifuge tube. Cells were centrifuged at 2500 r.p.m. for 10 min, the pellet was again washed with ice-cold PBS and centrifuged. The cell pellet was then suspended in chilled cell lysis buffer (0.1 M Tris–HCl, 0.5% Triton X-100, protease inhibitor cocktail) and sonicated on ice for 10–15 s. The homogenate was kept on ice for 30 min and then centrifuged at 13 000 r.p.m. for 30 min. The supernatant was used as cell lysate. The cell lysates were stored at −80°C. Protein concentration of the cell lysates was determined using Bio-Rad protein assay reagents.
# Protein lysates from MCF-7 and T47D cells were subjected to sodium dodecyl sulphate–polyacrylamide gel electrophoresis (SDS–PAGE) and immunoblotted for different proteins. […] Immunoreactive bands were visualised using the enhanced chemiluminescence detection reagents and analysis system (Amersham Bioscences) according to the manufacturer's instructions and quantified by densitometry using ImageQuant software version 5.
# Figure 5 Western blotting of whole-cell lysates of treated MCF-7 and T47D cells for the expression of Cyclin D1. […] Numbers below the blot show fold decrease in expression of the protein as analysed by ImageQuant densitometry analysis. […]
# [3] = tested on: MCF-7 cells; assay: TUNEL apoptosis assay, MCF-7; format: cell-based, human; conditions: 5 μM; 6 days; control about 1.5%
# Excerpt: (§1) The cells were rinsed with PBS and then the stained-labelled apoptotic cells were mounted using DAPI (diamidino-2-phenylindole 2HCl)-glycerol and visualised with a fluorescent microscope using two filters (1) for TUNEL stained cells, and (2) for DAPI stained cells, which represents all the cells (nuclei). Fluorescent microscope model was Nikon, Eclipse E400 and the software was SPOT advanced version 3.5.5 by Diagnostic Instruments Inc. (Sterling Heights, MI, USA).
# (§2) Figure 6 Graphs showing apoptosis induced in (A) MCF-7 and (B) T47D cells as determined by TUNEL. […] TUNEL-stained apoptotic cells were counted against the DAPI stained cells to obtain percentage apoptosis. The experiments were repeated thrice with similar results. Error bars show s.e.m of three different fields of treated cells, statistically significant ^*P<0.01 and ^**P<0.001 vs control.
# [4] = tested on: T47D cells; assay: TUNEL apoptosis assay, T47D; format: cell-based, human; conditions: 5 μM; 6 days; control about 1.5%
# Excerpt: as §1, §2
# [5] = tested on: MCF-7 cells; design: method as in Patel et al. (2004); conditions: inhibition of cell proliferation by 50%; ref Patel et al. (2004); read-out: Cellular IC50, MCF-7; cited from earlier work
# [6] = tested on: MDA-MB-231 cells; design: method as in Patel et al. (2004); conditions: inhibition of cell proliferation by 50%; ref Patel et al. (2004); read-out: Cellular IC50, MDA-MB-231; cited from earlier work
compound,measurement,setting,value
"CC1=C(/C=C/C(C)=C/C=C/C(C)=C/C(=O)Nc2ccc(O)cc2)C(C)(C)CCC1 [Compound 4-HPR, 4-Hydroxyphenyl retinamide, reference compound]",G2/M (%),[1],16.75±4.39%
same,Go/G1 (%),[1],76.94±3.47%
same,S (%),[1],6.32±0.93%
same,Sub-G1 (%),[1],30.25±6.66%
same,Decrease of cyclin D1 protein expression compared with untreated control,[2],> 80%
same,"Induction of apoptosis (TUNEL), MCF-7",[3],20–25%
same,"Induction of apoptosis (TUNEL), T47D",[4],20–25%
same,IC50,[5],148 nM
same,IC50,[6],1400 nM
